Source: patent US20230382911A1 (Hoffmann-La Roche Inc., priority 2021, published 2023)

Biological target: Recombinant human Mat2a (Homo sapiens (Human), UniProt P31153)
Assay: Determination of Mat2A activity: 384 well format absorbance-based Mat2A inhibition assay
Assay type: biochemical
Conditions: 12.5 nM Mat2A, 100 μM ATP and Methionine, 2% DMSO, 120 minutes at RT, Biomol Green, absorbance at 635 nm
Description: Determination of Mat2A Activity
Measurement of Mat2A inhibition is performed in 384 well format absorbance-based assay.
Recombinant human Mat2a (12.5 nM) and serial diluted compounds in DMSO (range of concentrations from 10 μM to […]) or controls (DMSO) are incubated for 15 minutes at room temperature (RT) in assay buffer containing 50 mM HEPES pH 7.5, 50 mM KCl, 50 mM MgCl2, 0.01% Tween 20 and 10 mM DTT. The reaction is initiated by the addition of the combined substrates ATP and Methionine, each at a final concentration of 100 μM. Final assay condition are 12.5 nM Mat2A, 100 μM ATP and Methionine Substrates and 2% DMSO. After 120 minutes of incubation at RT, the reaction is stopped by the addition of Biomol Green. The absorbance signal is measured at λ=635 nm with a multiplate reader (BMG Pherastar reader or equivalent) after 30 min of equilibration at RT.

Recombinant human Mat2a, sequence (P31153 whole entry): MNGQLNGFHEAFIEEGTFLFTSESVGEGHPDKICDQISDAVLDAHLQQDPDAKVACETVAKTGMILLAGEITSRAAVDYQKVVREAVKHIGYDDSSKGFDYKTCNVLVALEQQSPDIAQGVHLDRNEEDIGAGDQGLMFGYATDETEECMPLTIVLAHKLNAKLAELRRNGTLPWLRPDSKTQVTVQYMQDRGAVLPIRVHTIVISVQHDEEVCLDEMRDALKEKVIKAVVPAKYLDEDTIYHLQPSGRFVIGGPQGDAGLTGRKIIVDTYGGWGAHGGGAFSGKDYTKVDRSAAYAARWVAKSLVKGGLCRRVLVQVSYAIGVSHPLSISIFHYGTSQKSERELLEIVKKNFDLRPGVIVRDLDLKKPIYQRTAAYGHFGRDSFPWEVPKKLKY

Row | SMILES | IC50
1 | Cc1ccccc1C(=O)n1nc(N)c2ccc(C(F)(F)F)nc21 [Example 25, (3-amino-6-(trifluoromethyl)-1H-pyrazolo[3,4-b]pyridin-1-yl)(o-tolyl)methanone] | 290 nM
2 | COc1ccccc1C(=O)n1nc(N)c2ccc(C(F)(F)F)nc21 [Example 26] | 120 nM
3 | COc1ccccc1C(=O)n1nc(N)c2ccc(N3CC(F)(F)C3)nc21 [Example 27, (3-amino-6-(3,3-difluoroazetidin-1-yl)-1H-pyrazolo[3,4-b]pyridin-1-yl)(2-methoxyphenyl)methanone] | 69 nM
4 | Cc1ccccc1C(=O)n1nc(N)c2ccc(N3CC(F)(F)C3)nc21 [Example 28, (3-amino-6-(3,3-difluoroazetidin-1-yl)-1H-pyrazolo[3,4-b]pyridin-1-yl)(o-tolyl)methanone] | 340 nM
5 | Cc1ccccc1C(=O)n1nc(N)c2ccc(C3CCCC3)nc21 [Example 29, (3-amino-6-cyclopentylpyrazolo[3,4-b]pyridin-1-yl)-(2-methylphenyl)methanone] | 480 nM
6 | Cc1ccccc1C(=O)n1nc(N)c2ccc(C3=CCCC3)nc21 [Example 30, [3-amino-6-(cyclopenten-1-yl)pyrazolo[3,4-b]pyridin-1-yl]-(2-methylphenyl)methanone] | 53 nM
7 | Cc1ccccc1C(=O)n1nc(N)c2ccc(C3CCC3)nc21 [Example 31, (3-amino-6-cyclobutyl-1H-pyrazolo[3,4-b]pyridin-1-yl)(o-tolyl)methanone] | 200 nM
8 | COc1ccccc1C(=O)n1nc(N)c2ccc(C3CCC3)nc21 [Example 32] | 59 nM
9 | COc1ccccc1C(=O)n1nc(N)c2ccc(C3=CCOC3)nc21 [Example 35, [3-amino-6-(2,5-dihydrofuran-3-yl)pyrazolo[3,4-b]pyridin-1-yl]-(2-methoxyphenyl)methanone] | 17 nM
10 | Cc1ccccc1C(=O)n1nc(N)c2ccc(C3=CCOC3)nc21 [Example 36, [3-amino-6-(2,5-dihydrofuran-3-yl)pyrazolo[3,4-b]pyridin-1-yl]-(2-methylyphenyl)methanone] | 67 nM
11 | COC1CCCCC1C(=O)n1nc(N)c2ccc(C3CC3)nc21 (stereo not shown) [Example 37, (3-amino-6-cyclopropyl-1H-pyrazolo[3,4-b]pyridin-1-yl)(2-methoxycyclohexyl)methanone] | 290 nM
12 | COc1ccccc1C(=O)n1nc(N)c2cc3c(nc21)CC(C)CC3 (stereo not shown) [Example 38, (3-amino-7-methyl-5,6,7,8-tetrahydro-1H-pyrazolo[3,4-b]quinolin-1-yl)(2-methoxyphenyl)methanone] | 120 nM
13 | COc1ccccc1C(=O)n1nc(N)c2ccc(C3CC3(F)F)nc21 (stereo not shown) [Example 40, (3-amino-6-(2,2-difluorocyclopropyl)-1H-pyrazolo[3,4-b]pyridin-1-yl)(2-methoxyphenyl)methanone] | 32 nM
14 | Cc1ccccc1C(=O)n1nc(N)c2ccc(C3CC3(F)F)nc21 (stereo not shown) [Example 41, (3-amino-6-(2,2-difluorocyclopropyl)-1H-pyrazolo[3,4-b]pyridin-1-yl)(o-tolyl)methanone] | 150 nM
15 | COc1c(F)cccc1C(=O)n1nc(N)c2ccc(C3CC3(F)F)nc21 (stereo not shown) [Example 45, (3-amino-6-(2,2-difluorocyclopropyl)-1H-pyrazolo[3,4-b]pyridin-1-yl)(3-fluoro-2-methoxyphenyl)methanone] | 91 nM
16 | COc1c(F)cccc1C(=O)n1nc(N)c2cc(F)c(N3CCCC3)nc21 [Example 46, (3-amino-5-fluoro-6-(pyrrolidin-1-yl)-1H-pyrazolo[3,4-b]pyridin-1-yl)(3-fluoro-2-methoxyphenyl)methanone] | 55 nM
17 | COc1c(F)cccc1C(=O)n1nc(N)c2ccc(C3=CCOC3)nc21 [Example 47, [3-amino-6-(2,5-dihydrofuran-3-yl)pyrazolo[3,4-b]pyridin-1-yl]-(3-fluoro-2-methoxyphenyl)methanone] | 25 nM
18 | Cc1ccccc1C(=O)n1nc(N)c2ccc(C3(C)CC3)nc21 [Example 48, (3-amino-6-(1-methylcyclopropyl)-1H-pyrazolo[3,4-b]pyridin-1-yl)(o-tolyl)methanone] | 130 nM
19 | Cc1ncccc1C(=O)n1nc(N)c2ccc(C3CC3(F)F)nc21 (stereo not shown) [Example 49, (3-amino-6-(2,2-difluorocyclopropyl)-1H-pyrazolo[3,4-b]pyridin-1-yl)(2-methylpyridin-3-yl)methanone] | 22 nM
20 | CC1OCCC1C(=O)n1nc(N)c2ccc(C3CC3(F)F)nc21 (stereo not shown) [Example 50, (3-amino-6-(2,2-difluorocyclopropyl)-1H-pyrazolo[3,4-b]pyridin-1-yl)(2-methyltetrahydrofuran-3-yl)methanone] | 160 nM

Row | SMILES | IC50
21 | COc1ccccc1C(=O)n1nc(N)c2ccc(N3C4CCC3CC4)nc21 [Example 53, [3-amino-6-(7-azabicyclo[2.2.1]heptan-7-yl)pyrazolo[3,4-b]pyridin-1-yl]-(2-methoxyphenyl)methanone] | 240 nM
22 | Cc1c(F)cccc1C(=O)n1nc(N)c2ccc(C3CC3)nc21 [Example 54, (3-amino-6-cyclopropyl-1H-pyrazolo[3,4-b]pyridin-1-yl)(3-fluoro-2-methylphenyl)methanone] | 210 nM
23 | Cc1cccc(C(=O)n2nc(N)c3ccc(C4CC4)nc32)c1C [Example 55, (3-amino-6-cyclopropyl-1H-pyrazolo[3,4-b]pyridin-1-yl)(2,3-dimethylphenyl)methanone] | 320 nM
24 | Nc1nn(C(=O)C2CCCCC2)c2nc(C3CC3)ccc12 [Example 56, (3-amino-6-cyclopropyl-1H-pyrazolo[3,4-b]pyridin-1-yl)(cyclohexyl)methanone] | 430 nM
25 | COc1c(F)cccc1C(=O)n1nc(N)c2ccc(C3CC3)nc21 [Example 57, (3-amino-6-cyclopropyl-1H-pyrazolo[3,4-b]pyridin-1-yl)(3-fluoro-2-methoxyphenyl)methanone] | 110 nM
26 | COc1cc(F)ccc1C(=O)n1nc(N)c2ccc(C3CC3)nc21 [Example 58, (3-amino-6-cyclopropyl-1H-pyrazolo[3,4-b]pyridin-1-yl)(4-fluoro-2-methoxyphenyl)methanone] | 300 nM
27 | CCc1ccccc1C(=O)n1nc(N)c2ccc(C3CC3)nc21 [Example 60, (3-amino-6-cyclopropyl-1H-pyrazolo[3,4-b]pyridin-1-yl)(2-ethylphenyl)methanone] | 37 nM
28 | Nc1nn(C(=O)c2ccccc2OC(F)F)c2nc(C3CC3)ccc12 [Example 61, (3-amino-6-cyclopropyl-1H-pyrazolo[3,4-b]pyridin-1-yl)(2-(difluoromethoxy)phenyl)methanone] | 130 nM
29 | Cc1ocnc1C(=O)n1nc(N)c2ccc(C3CC3)nc21 [Example 62, (3-amino-6-cyclopropyl-1H-pyrazolo[3,4-b]pyridin-1-yl)(5-methyloxazol-4-yl)methanone] | 350 nM
30 | Cc1ncsc1C(=O)n1nc(N)c2ccc(C3CC3)nc21 [Example 63, (3-amino-6-cyclopropyl-1H-pyrazolo[3,4-b]pyridin-1-yl)(4-methylthiazol-5-yl)methanone] | 130 nM
31 | CC1OCCC1C(=O)n1nc(N)c2ccc(C3CC3)nc21 (stereo not shown) [Example 64, (3-amino-6-cyclopropyl-1H-pyrazolo[3,4-b]pyridin-1-yl)(2-methyltetrahydrofuran-3-yl)methanone] | 41 nM
32 | Cc1c(C#N)cccc1C(=O)n1nc(N)c2ccc(C3CC3)nc21 [Example 66, 3-(3-amino-6-cyclopropyl-1H-pyrazolo[3,4-b]pyridine-1-carbonyl)-2-methylbenzonitrile] | 54 nM
33 | Nc1nn(C(=O)C2CCOCC2)c2nc(C3CC3)ccc12 [Example 67, (3-amino-6-cyclopropyl-1H-pyrazolo[3,4-b]pyridin-1-yl)(tetrahydro-2H-pyran-4-yl)methanone] | 49 nM
34 | Cc1ncccc1C(=O)n1nc(N)c2ccc(C3CC3)nc21 [Example 68, (3-amino-6-cyclopropyl-1H-pyrazolo[3,4-b]pyridin-1-yl)(2-methylpyridin-methylpyridine-3-yl)methanone] | 19 nM
35 | Nc1nn(C(=O)C2CCNC(=O)C2)c2nc(C3CC3)ccc12 (stereo not shown) [Example 69, 4-(3-amino-6-cyclopropyl-1H-pyrazolo[3,4-b]pyridine-1-carbonyl)piperidin-2-one] | 79 nM
36 | COc1c(C)cccc1C(=O)n1nc(N)c2ccc(C3CC3)nc21 [Example 70, (3-amino-6-cyclopropyl-1H-pyrazolo[3,4-b]pyridin-1-yl)(2-methoxy-3-methylphenyl)methanone] | 180 nM
37 | COc1c(Cl)cccc1C(=O)n1nc(N)c2ccc(C3CC3)nc21 [Example 71, (3-amino-6-cyclopropyl-1H-pyrazolo[3,4-b]pyridin-1-yl)(3-chloro-2-methoxyphenyl)methanone] | 480 nM
38 | COc1c(C#N)cccc1C(=O)n1nc(N)c2ccc(C3CC3)nc21 [Example 72, 3-(3-amino-6-cyclopropyl-1H-cyclopropyl-1H-pyrazolo[3,4-b]pyridine-1-carbonyl)-2-methoxybenzonitrile] | 37 nM
39 | Nc1nn(C(=O)C2CCCOC2)c2nc(C3CC3)ccc12 (stereo not shown) [Example 73, (3-amino-6-cyclopropyl-1H-cyclopropyl-1H-pyrazolo[3,4-b]pyridin-1-yl)(tetrahydro-2H-pyran-3-yl)methanone] | 180 nM
40 | Cc1nccnc1C(=O)n1nc(N)c2ccc(C3CC3)nc21 [Example 74, (3-amino-6-cyclopropyl-1H-pyrazolo[3,4-b]pyridin-1-yl)(3-methylpyrazin-2-yl)methanone] | 220 nM
